PMC7260718, “Novel routes towards bioplastics from plants: elucidation of the methylperillate biosynthesis pathway from Salvia dorisiana trichomes” (Journal of Experimental Botany, 2020)

Experiments:
SdSaS = molecular target: T1, SdSaS (Salvia dorisiana, UniProt A0A6G5RTE6); assay: in vitro terpene synthase assay, GC-MS; format: cell-based; conditions: product sabinene; conditions by reference to earlier study
T1 construct: gene SaS; plastid targeting signal removed, pCDF-duet, E. coli
T1 sequence (A0A6G5RTE6 1-538): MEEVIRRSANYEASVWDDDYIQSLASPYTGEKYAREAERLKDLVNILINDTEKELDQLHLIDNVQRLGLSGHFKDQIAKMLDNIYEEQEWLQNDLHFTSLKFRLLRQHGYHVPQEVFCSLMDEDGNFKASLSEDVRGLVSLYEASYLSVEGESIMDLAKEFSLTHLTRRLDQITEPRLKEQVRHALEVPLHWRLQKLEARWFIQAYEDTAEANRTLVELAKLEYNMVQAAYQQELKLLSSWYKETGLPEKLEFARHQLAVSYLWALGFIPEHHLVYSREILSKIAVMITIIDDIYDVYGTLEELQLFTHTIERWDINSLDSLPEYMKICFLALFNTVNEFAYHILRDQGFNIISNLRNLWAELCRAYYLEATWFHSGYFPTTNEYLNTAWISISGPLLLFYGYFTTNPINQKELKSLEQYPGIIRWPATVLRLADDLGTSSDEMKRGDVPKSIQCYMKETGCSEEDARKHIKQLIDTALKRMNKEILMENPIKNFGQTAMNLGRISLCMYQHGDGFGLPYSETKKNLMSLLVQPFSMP

SdPCS = molecular target: T2, SdPCS (Salvia dorisiana, UniProt A0A6G5RV47); assay: in vitro terpene synthase assay, GC-MS; format: cell-based; conditions: products alpha-pinene and camphene; conditions by reference to earlier study
T2 construct: gene PCS; plastid targeting signal removed, pCDF-duet, E. coli
T2 sequence (A0A6G5RV47 52-589): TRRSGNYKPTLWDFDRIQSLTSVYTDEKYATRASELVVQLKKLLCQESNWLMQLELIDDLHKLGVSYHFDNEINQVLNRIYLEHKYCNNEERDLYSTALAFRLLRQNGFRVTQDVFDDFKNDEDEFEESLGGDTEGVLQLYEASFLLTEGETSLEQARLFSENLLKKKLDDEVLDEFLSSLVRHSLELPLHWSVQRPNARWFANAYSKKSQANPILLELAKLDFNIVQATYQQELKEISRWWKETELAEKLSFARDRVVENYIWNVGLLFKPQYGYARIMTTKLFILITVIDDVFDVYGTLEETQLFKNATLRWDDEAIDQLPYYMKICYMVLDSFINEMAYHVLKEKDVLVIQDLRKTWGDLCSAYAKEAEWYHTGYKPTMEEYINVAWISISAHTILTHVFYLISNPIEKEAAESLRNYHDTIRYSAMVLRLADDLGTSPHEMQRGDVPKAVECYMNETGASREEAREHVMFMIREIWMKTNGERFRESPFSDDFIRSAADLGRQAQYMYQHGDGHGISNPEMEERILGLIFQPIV

SdLiS = molecular target: T3, SdLiS (Salvia dorisiana, UniProt A0A6G5RUG7); assay: in vitro terpene synthase assay, GC-MS; format: cell-based; conditions: product linalool; conditions by reference to earlier study
T3 construct: gene LiS; plastid targeting signal removed, pCDF-duet, E. coli
T3 sequence (A0A6G5RUG7 55-582 limits assumed): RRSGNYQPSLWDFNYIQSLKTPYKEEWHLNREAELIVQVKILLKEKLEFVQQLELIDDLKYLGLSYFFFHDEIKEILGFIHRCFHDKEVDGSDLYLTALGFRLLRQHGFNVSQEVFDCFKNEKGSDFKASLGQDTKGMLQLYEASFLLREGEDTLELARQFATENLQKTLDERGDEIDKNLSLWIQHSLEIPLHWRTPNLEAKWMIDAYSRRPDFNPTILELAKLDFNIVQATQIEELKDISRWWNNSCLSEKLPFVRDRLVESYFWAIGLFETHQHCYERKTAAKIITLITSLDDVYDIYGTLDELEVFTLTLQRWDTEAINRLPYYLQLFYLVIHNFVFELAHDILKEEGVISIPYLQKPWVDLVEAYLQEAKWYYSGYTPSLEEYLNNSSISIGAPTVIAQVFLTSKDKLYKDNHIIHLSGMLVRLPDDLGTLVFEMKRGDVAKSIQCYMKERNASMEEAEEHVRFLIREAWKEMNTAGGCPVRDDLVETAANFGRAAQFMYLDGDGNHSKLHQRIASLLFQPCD

SdEuS = molecular target: T4, SdEuS (Salvia dorisiana, UniProt A0A6G5RUA2); assay: in vitro terpene synthase assay, GC-MS; format: cell-based; conditions: product eucalyptol; conditions by reference to earlier study
T4 construct: gene EuS; plastid targeting signal removed, pCDF-duet, E. coli
T4 sequence (A0A6G5RUA2 55-578): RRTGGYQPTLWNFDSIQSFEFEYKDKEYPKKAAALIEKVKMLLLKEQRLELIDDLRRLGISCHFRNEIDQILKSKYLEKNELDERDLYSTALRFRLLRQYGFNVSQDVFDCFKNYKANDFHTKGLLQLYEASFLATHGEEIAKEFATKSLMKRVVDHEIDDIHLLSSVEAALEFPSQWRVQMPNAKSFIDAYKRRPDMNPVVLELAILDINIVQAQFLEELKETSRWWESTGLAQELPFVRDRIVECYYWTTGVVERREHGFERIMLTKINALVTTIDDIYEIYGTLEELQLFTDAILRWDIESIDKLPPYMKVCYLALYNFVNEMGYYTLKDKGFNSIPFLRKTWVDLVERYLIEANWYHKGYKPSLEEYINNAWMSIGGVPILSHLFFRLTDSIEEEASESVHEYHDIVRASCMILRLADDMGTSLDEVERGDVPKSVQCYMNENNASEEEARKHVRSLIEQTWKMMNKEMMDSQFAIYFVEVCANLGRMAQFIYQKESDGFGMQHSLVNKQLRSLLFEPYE

SdPS = molecular target: T5, SdPS (Salvia dorisiana, UniProt A0A6G5RTD3); assay: in vitro terpene synthase assay, GC-MS; format: cell-based; conditions: product beta-pinene; conditions by reference to earlier study
T5 construct: gene PS; plastid targeting signal removed, pCDF-duet, E. coli
T5 sequence (A0A6G5RTD3 60-600): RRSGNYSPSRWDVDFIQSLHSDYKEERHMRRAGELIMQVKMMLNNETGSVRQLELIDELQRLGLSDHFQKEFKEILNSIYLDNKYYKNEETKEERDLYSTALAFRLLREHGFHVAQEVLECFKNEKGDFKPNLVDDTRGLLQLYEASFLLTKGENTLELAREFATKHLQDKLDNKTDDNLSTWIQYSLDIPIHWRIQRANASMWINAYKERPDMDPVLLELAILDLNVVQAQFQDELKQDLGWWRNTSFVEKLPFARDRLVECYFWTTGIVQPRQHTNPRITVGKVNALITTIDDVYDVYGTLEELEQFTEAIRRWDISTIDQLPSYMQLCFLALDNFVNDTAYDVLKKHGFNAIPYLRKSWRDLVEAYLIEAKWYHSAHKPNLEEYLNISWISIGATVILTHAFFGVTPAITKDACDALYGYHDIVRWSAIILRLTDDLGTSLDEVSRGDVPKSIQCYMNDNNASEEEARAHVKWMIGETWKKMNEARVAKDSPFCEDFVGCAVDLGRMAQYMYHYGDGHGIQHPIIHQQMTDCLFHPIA

SdL7H = molecular target: T6, SdL7H (Salvia dorisiana, UniProt A0A6G5RTT4); assay: GC-MS of perillyl alcohol in culture extract; format: cell-based; conditions: yeast co-expressing limonene synthase, 30 °C, 96 h; also N. benthamiana with SdLS
T6 construct: gene L7H; expressed in Saccharomyces cerevisiae (limonene-producing strain Sc-PftLS) from pTEF plasmid; also in Nicotiana benthamiana
T6 sequence (A0A6G5RTT4 1-494): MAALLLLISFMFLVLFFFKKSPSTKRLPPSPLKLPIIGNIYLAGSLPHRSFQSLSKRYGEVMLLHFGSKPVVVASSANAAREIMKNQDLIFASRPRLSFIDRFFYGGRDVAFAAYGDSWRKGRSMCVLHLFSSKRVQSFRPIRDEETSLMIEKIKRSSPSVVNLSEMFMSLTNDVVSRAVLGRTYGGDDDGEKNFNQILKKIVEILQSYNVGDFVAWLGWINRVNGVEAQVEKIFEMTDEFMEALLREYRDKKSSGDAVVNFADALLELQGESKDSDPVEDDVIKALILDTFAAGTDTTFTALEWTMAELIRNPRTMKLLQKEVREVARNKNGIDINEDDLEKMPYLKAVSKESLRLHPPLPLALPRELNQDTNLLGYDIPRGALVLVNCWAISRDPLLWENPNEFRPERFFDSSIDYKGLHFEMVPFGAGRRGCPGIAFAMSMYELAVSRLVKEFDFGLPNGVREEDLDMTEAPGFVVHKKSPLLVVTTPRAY

SdOMT9 = molecular target: T7, SdOMT9 (Salvia dorisiana, UniProt A0A6G5RTF7); assay: headspace GC-MS of methylperillate; conditions: N. benthamiana leaves co-infiltrated with perillic acid; minor activity
T7 construct: gene OMT9; transient expression in Nicotiana benthamiana leaves
T7 sequence (A0A6G5RTF7 1-344): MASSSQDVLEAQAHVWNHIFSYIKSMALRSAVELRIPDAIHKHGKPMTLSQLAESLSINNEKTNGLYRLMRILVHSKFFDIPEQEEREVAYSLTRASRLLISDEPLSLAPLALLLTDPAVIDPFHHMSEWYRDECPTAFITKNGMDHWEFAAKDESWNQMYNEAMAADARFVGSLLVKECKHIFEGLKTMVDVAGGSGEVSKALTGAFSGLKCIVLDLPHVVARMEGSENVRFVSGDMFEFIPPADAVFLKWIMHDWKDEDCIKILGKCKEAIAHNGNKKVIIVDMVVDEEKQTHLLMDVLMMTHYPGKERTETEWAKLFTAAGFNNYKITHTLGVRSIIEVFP

SdPAOMT = molecular target: T8, SdPAOMT (Salvia dorisiana, UniProt A0A6G5RV57); assay: GC-MS of methyl ester product; format: biochemical; conditions: E. coli cell-free extract; 1 mM substrate, 1.28 mM SAM (from stocks), Tris-HCl pH 7.0, room temperature, 1 h
T8 construct: gene PAOMT; full length, pCDF-duet, E. coli BL21(DE3) cell-free extract
T8 sequence (A0A6G5RV57 1-359): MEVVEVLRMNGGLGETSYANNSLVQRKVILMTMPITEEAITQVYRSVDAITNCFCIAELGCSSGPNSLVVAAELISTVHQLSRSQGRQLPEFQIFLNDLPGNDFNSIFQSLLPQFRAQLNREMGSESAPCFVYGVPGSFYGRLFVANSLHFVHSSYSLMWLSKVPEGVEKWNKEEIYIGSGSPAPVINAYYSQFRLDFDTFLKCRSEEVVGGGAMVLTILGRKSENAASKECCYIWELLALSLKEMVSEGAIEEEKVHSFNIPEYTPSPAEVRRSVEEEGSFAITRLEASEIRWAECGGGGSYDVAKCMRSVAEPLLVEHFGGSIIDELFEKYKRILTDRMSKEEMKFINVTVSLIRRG

SdOMT4 = molecular target: T9, SdOMT4 (Salvia dorisiana, UniProt A0A6G5RUB3); assay: headspace GC-MS of methylperillate; conditions: N. benthamiana leaves co-infiltrated with perillic acid; minor activity
T9 construct: gene OMT4; transient expression in Nicotiana benthamiana leaves
T9 sequence (A0A6G5RUB3 1-349): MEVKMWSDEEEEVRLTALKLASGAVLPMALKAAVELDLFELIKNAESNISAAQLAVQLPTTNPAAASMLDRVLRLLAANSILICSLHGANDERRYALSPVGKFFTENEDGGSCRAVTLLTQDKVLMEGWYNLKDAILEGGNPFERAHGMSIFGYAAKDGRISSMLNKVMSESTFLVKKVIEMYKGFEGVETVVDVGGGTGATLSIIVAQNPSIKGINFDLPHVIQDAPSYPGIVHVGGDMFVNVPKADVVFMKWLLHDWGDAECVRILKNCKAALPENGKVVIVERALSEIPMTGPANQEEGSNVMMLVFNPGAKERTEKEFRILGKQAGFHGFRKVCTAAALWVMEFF

SdPOHDH = molecular target: T10, SdPOHDH (Salvia dorisiana, UniProt A0A6G5RUH8); assay: LC-MS of perillyl aldehyde markers; conditions: N. benthamiana leaves infiltrated with 400 µM perillyl alcohol, 4 h
T10 construct: gene POHDH; transient expression in Nicotiana benthamiana leaves (pB7WG2)
T10 sequence (A0A6G5RUH8 1-370): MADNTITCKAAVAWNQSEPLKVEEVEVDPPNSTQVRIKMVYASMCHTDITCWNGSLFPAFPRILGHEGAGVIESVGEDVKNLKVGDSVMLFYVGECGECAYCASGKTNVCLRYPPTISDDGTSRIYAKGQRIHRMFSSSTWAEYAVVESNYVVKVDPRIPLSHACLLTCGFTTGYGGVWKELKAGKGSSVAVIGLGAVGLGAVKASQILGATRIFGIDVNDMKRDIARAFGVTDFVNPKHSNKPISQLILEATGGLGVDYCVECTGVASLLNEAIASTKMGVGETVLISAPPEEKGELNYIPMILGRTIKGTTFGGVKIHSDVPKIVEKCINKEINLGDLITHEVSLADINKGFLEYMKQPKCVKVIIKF

CC(C)=CCC/C(C)=C/COP(=O)(O)OP(=O)(O)O [geranyl diphosphate]
in vitro terpene synthase assay, GC-MS (SdSaS): a sabinene synthase SdSaS | in vitro terpene synthase assay, GC-MS (SdPCS): an α-pinene/camphene synthase SdPCS | in vitro terpene synthase assay, GC-MS (SdLiS): a linalool synthase SdLiS | in vitro terpene synthase assay, GC-MS (SdEuS): a eucalyptol synthase SdEuS | in vitro terpene synthase assay, GC-MS (SdPS): characterized by in vitro assays, including a β-pinene synthase SdPS

C=C(C)[C@@H]1CC=C(C)CC1 [limonene]
GC-MS of perillyl alcohol in culture extract (SdL7H): indicating that limonene is indeed used as a substrate

C=C(C)[C@@H]1CC=C(C(=O)O)CC1 [perillic acid]
headspace GC-MS of methylperillate (SdOMT9): only SdOMT4 and SdOMT9 showed minor MePA formation | GC-MS of methyl ester product (SdPAOMT): Cell-free extracts were tested with BA, SA, and PA as substrates, and SAM as methyl donor | headspace GC-MS of methylperillate (SdOMT4): only SdOMT4 and SdOMT9 showed minor MePA formation

C=C(C)[C@@H]1CC=C(CO)CC1 [perillyl alcohol]
LC-MS of perillyl aldehyde markers (SdPOHDH): SdPOHDH converted POH to PAldH

O=C(O)c1ccccc1O [salicylic acid]
GC-MS of methyl ester product (SdPAOMT): Methylated products were detected for all three substrates
